Four compounds from article PMC8120209, “Longitudinal evaluation of a novel BChE PET tracer as an early in vivo biomarker in the brain of a mouse model for Alzheimer disease” (Theranostics, 2021) can be followed below.

Each structure is given as a SMILES string.

Holding throughout (design): Eurofins SafetyScreen44 radioligand displacement, inhibition of control specific binding
(Loss of bound radioactivity is the signal in a displacement assay; it reports binding, not function.)

Assay [1] addresses T1, M5(h) (Homo sapiens, UniProt P08912).
T1 construct: gene CHRM5
The assay is described as follows: biochemical. The following applies: reference compound.

The target in assay [2] is T2, N neuronal α7 (h) (Homo sapiens, UniProt P36544).
T2 construct: gene CHRNA7
T2 sequence (P36544 whole entry): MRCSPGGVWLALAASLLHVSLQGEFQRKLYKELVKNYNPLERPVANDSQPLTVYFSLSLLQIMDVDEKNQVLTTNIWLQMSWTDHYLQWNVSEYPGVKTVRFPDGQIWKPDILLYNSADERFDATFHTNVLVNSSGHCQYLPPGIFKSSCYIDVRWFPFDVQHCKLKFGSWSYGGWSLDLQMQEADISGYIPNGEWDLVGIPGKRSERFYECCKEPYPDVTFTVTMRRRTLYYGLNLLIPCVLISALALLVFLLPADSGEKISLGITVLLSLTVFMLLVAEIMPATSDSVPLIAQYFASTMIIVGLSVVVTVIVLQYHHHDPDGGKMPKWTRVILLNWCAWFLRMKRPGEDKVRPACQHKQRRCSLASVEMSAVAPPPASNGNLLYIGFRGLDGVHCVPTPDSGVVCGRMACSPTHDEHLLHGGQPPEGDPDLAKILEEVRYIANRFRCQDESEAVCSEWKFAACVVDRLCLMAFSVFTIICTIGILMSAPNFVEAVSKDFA
The following applies: reference compound; binder.

The target in assay [3] is T2, N neuronal α7 (h). The following applies: reference compound; binder. The source holds these as a separate data set.
The target in assay [4] is T3, adrenergic receptor α1A (Homo sapiens, UniProt P35348).
T3 construct: gene ADRA1A
T3 sequence (P35348 1-466): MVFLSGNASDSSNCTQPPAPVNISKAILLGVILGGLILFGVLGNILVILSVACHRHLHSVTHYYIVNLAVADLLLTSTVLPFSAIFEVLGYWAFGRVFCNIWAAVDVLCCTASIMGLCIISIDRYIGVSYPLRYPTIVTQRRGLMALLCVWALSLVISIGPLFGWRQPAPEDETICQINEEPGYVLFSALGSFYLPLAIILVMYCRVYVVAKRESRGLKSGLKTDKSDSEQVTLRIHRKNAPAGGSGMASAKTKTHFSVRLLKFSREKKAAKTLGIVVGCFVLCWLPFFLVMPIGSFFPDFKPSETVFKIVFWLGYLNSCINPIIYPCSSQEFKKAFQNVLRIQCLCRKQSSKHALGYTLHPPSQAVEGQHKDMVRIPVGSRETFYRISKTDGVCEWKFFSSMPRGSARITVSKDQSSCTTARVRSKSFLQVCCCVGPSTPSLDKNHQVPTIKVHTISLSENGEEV
The following applies: reference compound; binder.

In assay [5] the target is T3, adrenergic receptor α1A. The following applies: reference compound; binder. The source holds these as a separate data set.
The target of assay [6] is T4, 5-HT2B(h) (Homo sapiens, UniProt P41595).
T4 construct: gene HTR2B
T4 sequence (P41595 whole entry): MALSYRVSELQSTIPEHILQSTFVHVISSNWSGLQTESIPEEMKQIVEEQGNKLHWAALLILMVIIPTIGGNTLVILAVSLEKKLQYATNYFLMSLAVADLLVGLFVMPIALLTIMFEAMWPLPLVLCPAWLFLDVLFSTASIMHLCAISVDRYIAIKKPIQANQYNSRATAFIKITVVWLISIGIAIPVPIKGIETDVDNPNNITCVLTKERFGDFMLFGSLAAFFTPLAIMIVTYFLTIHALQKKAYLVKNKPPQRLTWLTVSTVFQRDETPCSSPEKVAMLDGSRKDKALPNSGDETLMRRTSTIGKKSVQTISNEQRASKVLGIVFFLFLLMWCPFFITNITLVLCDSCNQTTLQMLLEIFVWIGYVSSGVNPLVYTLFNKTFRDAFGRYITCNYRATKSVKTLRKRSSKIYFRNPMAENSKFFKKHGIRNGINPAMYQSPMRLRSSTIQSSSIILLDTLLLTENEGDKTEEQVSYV
Kind of assay: biochemical. The following applies: reference compound.

T1 sequence (P08912 whole entry): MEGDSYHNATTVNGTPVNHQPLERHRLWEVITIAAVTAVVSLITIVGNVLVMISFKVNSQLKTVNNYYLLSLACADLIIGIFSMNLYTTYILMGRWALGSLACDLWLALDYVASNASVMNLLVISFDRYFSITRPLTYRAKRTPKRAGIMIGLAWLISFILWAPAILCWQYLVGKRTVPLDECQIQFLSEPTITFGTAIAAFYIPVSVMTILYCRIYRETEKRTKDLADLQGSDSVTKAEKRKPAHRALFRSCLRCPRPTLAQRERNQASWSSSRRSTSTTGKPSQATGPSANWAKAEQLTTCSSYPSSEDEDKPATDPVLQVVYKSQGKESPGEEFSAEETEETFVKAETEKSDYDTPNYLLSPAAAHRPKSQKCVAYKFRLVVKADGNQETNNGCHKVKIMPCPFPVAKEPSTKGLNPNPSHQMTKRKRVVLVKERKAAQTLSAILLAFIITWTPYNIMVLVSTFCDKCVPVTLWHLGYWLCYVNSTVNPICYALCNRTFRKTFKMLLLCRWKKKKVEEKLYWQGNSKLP

A word on the Ki: it is the dissociation constant of the complex between target and ligand, obtained from inhibition or displacement. Read a low Ki as a stronger hold on the target. `C[N+]1(C)CCC(OC(=O)C(c2ccccc2)c2ccccc2)CC1` [4-DAMP] came in with a Ki in assay [1] of 0.5 nM.

One may read the IC50 as the midpoint of a concentration-inhibition curve. A lower IC50 goes with higher potency. Compound `Clc1ccc(C2CC3CCC2N3)cn1` (racemic) [(±)epibatidine] came in with a Ki in assay [2] of 75 nM. The IC50 in assay [3] came out at 86 nM.

`COc1cccc(OC)c1OCCNCC1COc2ccccc2O1` (stereo not drawn) [WB 4101] had a Ki in assay [4] of 0.3 nM. This compound also yielded an IC50 in assay [5] of 0.61 nM.

Consider `COc1cc(CC(C)N)c(OC)cc1I` (racemic) [(±)DOI], for which the Ki in assay [6] worked out at 1.8 nM.
